pEC50: −log10 of the molar value. Read-outs that look alike come from different tables or passages of the source.
Tests used:
Assay type in all cases: cell-based
[1] = biological target: T1, M4 muscarinic receptor (Homo sapiens, UniProt P08173); assay: Functional mobilization of intracellular calcium (FLIPR) in CHO cells expressing M4; conditions: for M4 Activity: CHO cells expressing M4, FLIPR calcium assay; for Emax: CHO; for pEC50: CHO cells expressing M4, FLIPR calcium
T1 construct: expressed in transfected cells; host or cells: CHO (M4-CHO)
T1 sequence (P08173 1-479): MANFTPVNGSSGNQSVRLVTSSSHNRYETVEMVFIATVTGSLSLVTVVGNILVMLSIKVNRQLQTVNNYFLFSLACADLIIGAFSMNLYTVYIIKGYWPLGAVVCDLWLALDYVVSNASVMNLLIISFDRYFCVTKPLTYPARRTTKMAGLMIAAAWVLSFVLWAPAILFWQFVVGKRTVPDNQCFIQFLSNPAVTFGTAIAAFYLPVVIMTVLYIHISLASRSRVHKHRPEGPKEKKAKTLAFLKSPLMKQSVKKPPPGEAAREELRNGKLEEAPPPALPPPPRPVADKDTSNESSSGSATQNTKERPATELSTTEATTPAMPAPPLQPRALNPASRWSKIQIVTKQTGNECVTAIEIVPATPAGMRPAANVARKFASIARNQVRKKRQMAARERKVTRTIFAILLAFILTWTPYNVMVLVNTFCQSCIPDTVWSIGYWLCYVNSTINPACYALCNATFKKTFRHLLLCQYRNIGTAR
In short: (§1)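 Calcium flux is read on FLIPR over 60 sec at 488/540 nm in muscarinic-receptor CHO lines. Antagonist mode adds carbachol at EC80 after 15 min compound preincubation or with simultaneous co-application. Agonist mode adds compound alone. Cells carry Fluo-3 or Calcium 3 dye in probenecid-containing pH 7.4 buffer, 0.5% DMSO final.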

[2] = biological target: T2, M2 muscarinic receptor (Homo sapiens, UniProt P08172); assay: Functional mobilization of intracellular calcium (FLIPR) in CHO cells expressing M2; conditions: for M2 Activity: CHO cells expressing M2, FLIPR calcium assay; for Emax: CHO; for pEC50: CHO cells expressing M2, FLIPR calcium
T2 construct: expressed in transfected cells; host or cells: CHO (M2-CHO)
T2 sequence (P08172 1-466): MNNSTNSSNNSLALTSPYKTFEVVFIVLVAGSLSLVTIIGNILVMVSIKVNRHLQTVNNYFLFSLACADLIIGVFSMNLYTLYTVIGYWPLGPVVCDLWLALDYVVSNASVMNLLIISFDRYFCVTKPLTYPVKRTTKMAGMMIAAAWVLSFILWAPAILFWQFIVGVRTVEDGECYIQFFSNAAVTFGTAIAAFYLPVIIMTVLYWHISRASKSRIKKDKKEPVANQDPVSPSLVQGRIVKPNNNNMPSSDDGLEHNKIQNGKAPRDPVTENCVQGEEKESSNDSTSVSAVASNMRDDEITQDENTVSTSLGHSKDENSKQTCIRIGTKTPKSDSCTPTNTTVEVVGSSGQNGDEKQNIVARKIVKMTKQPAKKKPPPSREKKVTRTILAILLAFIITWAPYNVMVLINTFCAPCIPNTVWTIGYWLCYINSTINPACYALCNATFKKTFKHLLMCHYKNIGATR
In short: as §1

[3] = biological target: T3, M1 muscarinic receptor (Homo sapiens, UniProt P11229); assay: Functional mobilization of intracellular calcium (FLIPR) in CHO cells expressing M1; conditions: for M1 Activity: CHO cells expressing M1, FLIPR calcium assay; for Emax: CHO; for pEC50: CHO cells expressing M1, FLIPR calcium
T3 construct: expressed in transfected cells; host or cells: CHO (M1-CHO)
T3 sequence (P11229 1-460): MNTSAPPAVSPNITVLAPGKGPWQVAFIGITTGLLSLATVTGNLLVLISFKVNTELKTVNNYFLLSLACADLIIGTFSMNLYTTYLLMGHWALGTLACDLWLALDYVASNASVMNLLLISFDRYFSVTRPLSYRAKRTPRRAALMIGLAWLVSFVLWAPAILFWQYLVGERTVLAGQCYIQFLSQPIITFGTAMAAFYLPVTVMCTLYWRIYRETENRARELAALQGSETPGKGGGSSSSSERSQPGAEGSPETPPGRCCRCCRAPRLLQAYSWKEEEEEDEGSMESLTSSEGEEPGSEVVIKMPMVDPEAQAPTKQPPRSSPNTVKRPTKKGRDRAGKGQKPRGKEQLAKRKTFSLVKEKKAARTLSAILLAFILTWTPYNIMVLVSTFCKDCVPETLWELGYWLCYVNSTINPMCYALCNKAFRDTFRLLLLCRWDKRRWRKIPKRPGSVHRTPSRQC
In short: as §1

[4] = biological target: T4, M3 muscarinic receptor (Homo sapiens, UniProt P20309); assay: Functional mobilization of intracellular calcium (FLIPR) in CHO cells expressing M3; conditions: for M3 Activity: CHO cells expressing M3, FLIPR calcium assay; for Emax: CHO; for pEC50: CHO cells expressing M3, FLIPR calcium
T4 construct: expressed in transfected cells; host or cells: CHO (M3-CHO)
T4 sequence (P20309 whole entry): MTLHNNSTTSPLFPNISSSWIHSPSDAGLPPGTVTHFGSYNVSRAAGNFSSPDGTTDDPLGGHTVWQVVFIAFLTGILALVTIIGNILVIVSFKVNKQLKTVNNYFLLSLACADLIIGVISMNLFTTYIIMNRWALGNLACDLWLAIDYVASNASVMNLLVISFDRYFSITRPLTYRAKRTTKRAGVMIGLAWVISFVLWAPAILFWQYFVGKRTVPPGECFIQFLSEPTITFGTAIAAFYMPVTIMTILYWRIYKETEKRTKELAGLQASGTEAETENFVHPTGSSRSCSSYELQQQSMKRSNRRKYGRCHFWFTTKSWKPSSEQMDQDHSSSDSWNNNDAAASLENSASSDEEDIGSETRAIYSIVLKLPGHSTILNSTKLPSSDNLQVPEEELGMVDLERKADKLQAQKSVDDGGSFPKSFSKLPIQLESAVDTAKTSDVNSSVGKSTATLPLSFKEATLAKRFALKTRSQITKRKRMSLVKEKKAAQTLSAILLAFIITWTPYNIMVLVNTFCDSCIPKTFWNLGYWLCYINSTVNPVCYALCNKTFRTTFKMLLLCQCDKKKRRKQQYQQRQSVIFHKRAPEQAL
In short: as §1

[5] = 100% efficacy = maximum response obtained with the Carbachol control
[6] = 100% = maximum response obtained with the Carbachol control, read-out: M4 Efficacy
[7] = 100% = maximum response obtained with the Carbachol control, read-out: M2 Efficacy
[8] = 100% = maximum response obtained with the Carbachol control, read-out: M1 Efficacy
[9] = 100% = maximum response obtained with the Carbachol control, read-out: M3 Efficacy

| SMILES | M4 Activity [1] | Emax [1, 5] [%] | M2 Activity [2] | Emax [2, 5] [%] | M1 Activity [3] | Emax [3, 5] [%] | M3 Activity [4] | Emax [4, 5] [%] | pEC50 [1] | Emax [1, 6] [%] | pEC50 [2] | Emax [2, 7] [%] | pEC50 [3] | Emax [3, 8] [%] | pEC50 [4] | Emax [4, 9] [%] |
| --- | --- | --- | --- | --- | --- | --- | --- | --- | --- | --- | --- | --- | --- | --- | --- | --- |
| CC(=O)N1CCC(C(=O)N[C@H]2CCC3(CCN(CCC(C)(C)C)CC3)c3ccccc32)CC1 [compound 191] | +++ (activity was measured to be less than 2.0 μM) | 25 to 100 | + (activity was measured to be greater than 5.0 μM) | < 25 | +++ (activity was measured to be less than 2.0 μM) | 25 to 100 | + (activity was measured to be greater than 5.0 μM) | < 25 |  |  |  |  |  |  |  |  |
| CN(C(=O)C1CC1)[C@H]1CCC2(CCN(CCC(C)(C)C)CC2)c2ccccc21 [compound 176] |  |  |  |  |  |  |  |  | > 5.70 | 25 to 100 | < 5.30 | < 25 | 5.30 to 5.70 | < 25 | < 5.30 | < 25 |
| CC(=O)N[C@@H]1c2ccccc2C2(CCN(CCC(C)(C)C)CC2)CC1(F)F [compound 32] |  |  |  |  |  |  |  |  | > 5.70 | 25 to 100 | > 5.70 | 25 to 100 | > 5.70 | 25 to 100 | < 5.30 | < 25 |
| CC(C)(C)CCN1CCC2(CC[C@H](NC(=O)C3CC3)c3ccc(F)cc32)CC1 [compound 119] |  |  |  |  |  |  |  |  | > 5.70 | 25 to 100 | > 5.70 | 25 to 100 | > 5.70 | 25 to 100 | < 5.30 | < 25 |
| CC(C)(C)CCN1CCC2(CC[C@H](NC(=O)Cc3cccnc3)c3ccc(F)cc32)CC1 [compound 79] |  |  |  |  |  |  |  |  | > 5.70 | 25 to 100 | > 5.70 | 25 to 100 | > 5.70 | 25 to 100 | < 5.30 | < 25 |
| CCn1ccc(C(=O)N[C@H]2CCC3(CCN(CCC(C)(C)C)CC3)c3ccccc32)n1 [compound 207] | +++ (activity was measured to be less than 2.0 μM) | 25 to 100 | + (activity was measured to be greater than 5.0 μM) | < 25 | ++ (activity was measured to be from 2.0 μM to 5.0 μM) | 25 to 100 | + (activity was measured to be greater than 5.0 μM) | < 25 |  |  |  |  |  |  |  |  |
| Cn1cnc(C(=O)N[C@H]2CCC3(CCN(CCC(C)(C)C)CC3)c3cc(F)ccc32)c1 [compound 165] |  |  |  |  |  |  |  |  | > 5.70 | 25 to 100 | > 5.70 | 25 to 100 | > 5.70 | 25 to 100 | < 5.30 | < 25 |
| CCOCC(=O)N[C@@H]1CCC2(CCN(CCC(C)(C)C)CC2)c2cc(F)ccc21 [compound 63] |  |  |  |  |  |  |  |  | > 5.70 | 25 to 100 | > 5.70 | < 25 | > 5.70 | 25 to 100 | < 5.30 | < 25 |
| CC(=O)N1CCC(C(=O)N(C)[C@H]2CCC3(CCN(CCC(C)(C)C)CC3)c3ccccc32)CC1 [compound 132] |  |  |  |  |  |  |  |  | > 5.70 | 25 to 100 | < 5.30 | < 25 | 5.30 to 5.70 | 25 to 100 | < 5.30 | < 25 |
| CC(=O)N(C1CC1)C1CCC2(CCN(CCC(C)(C)C)CC2)c2ccccc21 (stereo not shown) [compound 122] |  |  |  |  |  |  |  |  | > 5.70 | 25 to 100 | < 5.30 | < 25 | > 5.70 | 25 to 100 | < 5.30 | < 25 |
| CCN(C(=O)CC(C)(C)O)[C@H]1CCC2(CCN(CCC(C)(C)C)CC2)c2ccccc21 [compound 42] |  |  |  |  |  |  |  |  | > 5.70 | 25 to 100 | < 5.30 | < 25 | 5.30 to 5.70 | 25 to 100 | < 5.30 | < 25 |
| CC(C)CCN1CCC2(CC1)CC(C(=O)O)c1ccccc12 (stereo not shown) [compound 259] | + (activity was measured to be greater than 5.0 μM) | < 25 | + (activity was measured to be greater than 5.0 μM) | < 25 | + (activity was measured to be greater than 5.0 μM) | 25 to 100 | + (activity was measured to be greater than 5.0 μM) | < 25 |  |  |  |  |  |  |  |  |
| CCCC(CCC)N1CCC2(CC[C@H](NC(=O)C3CC3)c3ccccc32)CC1 [compound 48] |  |  |  |  |  |  |  |  | < 5.30 | < 25 | < 5.30 | < 25 | < 5.30 | < 25 | < 5.30 | < 25 |
| CC(C)[C@@H](C(=O)N[C@@H]1CCC2(CCN(CCC(C)(C)C)CC2)c2ccccc21)N1CCCC1=O [compound 126] |  |  |  |  |  |  |  |  | > 5.70 | 25 to 100 | < 5.30 | < 25 | < 5.30 | < 25 | < 5.30 | < 25 |
| CC(CC(C)(C)C)N1CCC2(CC[C@H](NC(=O)N(C)C)c3ccccc32)CC1 (stereo partly shown) [compound 53] |  |  |  |  |  |  |  |  | > 5.70 | 25 to 100 | < 5.30 | < 25 | < 5.30 | < 25 | < 5.30 | < 25 |
| CC(C)C[C@@H](C(=O)N[C@@H]1CCC2(CCN(CCC(C)(C)C)CC2)c2ccccc21)N1CCCC1=O [compound 182] |  |  |  |  |  |  |  |  | > 5.70 | 25 to 100 | < 5.30 | < 25 | 5.30 to 5.70 | 25 to 100 | < 5.30 | < 25 |
| CCCC(=O)N[C@H]1CC2(CCN(CCC(C)(C)C)CC2)c2ccccc21 [compound 264] | +++ (activity was measured to be less than 2.0 μM) | 25 to 100 | + (activity was measured to be greater than 5.0 μM) | < 25 | + (activity was measured to be greater than 5.0 μM) | < 25 | + (activity was measured to be greater than 5.0 μM) | < 25 |  |  |  |  |  |  |  |  |
| CC(C)CCN1CCC2(CC[C@H](N3C(=O)CCC3=O)c3ccccc32)CC1 [compound 142] |  |  |  |  |  |  |  |  | < 5.30 | < 25 | < 5.30 | < 25 | 5.30 to 5.70 | 25 to 100 | < 5.30 | < 25 |
| CC(C)(C)CCN1CCC2(CC[C@@H](NC(=O)CC3CCOCC3)c3ccccc32)CC1 [compound 152] |  |  |  |  |  |  |  |  | > 5.70 | 25 to 100 | < 5.30 | < 25 | < 5.30 | < 25 | < 5.30 | < 25 |
| CC(=O)N[C@H]1CCC2(CCN(CCCCC(C)(C)C#N)CC2)c2ccccc21 [compound 179] |  |  |  |  |  |  |  |  | < 5.30 | < 25 | < 5.30 | < 25 | > 5.70 | 25 to 100 | < 5.30 | < 25 |

Reference: patent US8003660B2, “Modulators of muscarinic receptors” (Vertex Pharmaceuticals Incorporated, priority 2006, dated 2011)
